Data published in patent US20110038804A1, “MR IMAGING AGENT, IMAGING MEDIUM AND METHODS OF IMAGING WHEREIN SUCH AN IMAGING MEDIUM IS USED” (priority 2007, published 2011).

Legend:
mouse liver = assay: In vivo 13C-MR spectroscopy with surface coil over the liver in a mouse; design: species or system C57Bl/6 mouse; conditions: 175 μl of about 50 mM imaging medium injected over 6 s; liver region, 2.4 T, 10 spectra, repetition time 5 s
Protocol: 175 μl of an imaging medium comprising hyperpolarised sodium ^13C1-α-ketoisocaproate which was prepared as described in Example 1 was injected into a C57Bl/6 mouse over a time period of 6 s. The sodium ^13C1-α-ketoisocaproate concentration in said imaging medium was about 50 mM. A 12 mm surface coil (tuned for carbon) was positioned over the mouse to cover the liver region and signals of ^13C-α-ketoisocaproate and ^13C-leucine were detected by ^13C-MR spectroscopy which was carried out in a 2.4 T Bruker spectrometer to generate a metabolic profile. A total of 10 ^13C-spectra were acquired with a repetition time of 5 s and 30 degree RF pulses. In this Example, the ^13C-leucine signal is approximately 1% of the ^13C-α-ketoisocaproate signal.

[1] = system: subcutaneous mouse lymphoma (EL-4); format: in vivo
Protocol: EL-4 cells were injected into a C57Bl/6 mouse to generate a subcutaneous mouse lymphoma. 175 μl of an imaging medium comprising hyperpolarised sodium ^13C1-α-ketoisocaproate which was prepared as described in Example 2 was injected into the mouse over a time period of 6 s. The sodium ^13Ci-α-ketoisocaproate concentration in said imaging medium was about 50 mM. A 20 mm surface coil (tuned for carbon) was positioned over the subcutaneous tumour and signals of ^13C-α-ketoisocaproate and ^13C-leucine were detected by ^13C-MR spectroscopy which was carried out using a 2.4 T Bruker spectrometer to generate a metabolic profile of the tumour and the surrounding healthy tissue. A ^13C-chemical shift image was acquired with the following parameters: FOV 35×35 mm^2×10 mm, matrix size 16×16, 10 degree RF pulse, TR=35 ms. Total acquisition time was 11 seconds (die to triggering on breathing) and the chemical shift imaging started 15 seconds after the start of the injection of the imaging medium. Omniscan™ (GE Healthcare)—enhanced proton imaging was performed to confirm the tumour position and perfusion.

[2] = Tolerability in the animal models used; format: in vivo; conditions: animal models of the Examples (mouse, rat)
Protocol: In another preferred embodiment, the imaging medium comprising hyperpolarised ^13C-α-ketoisocaproate is administered repeatedly, thus allowing dynamic studies.

[3] = 175 μl of about 50 mM imaging medium, chemical shift imaging started 15 s after start of injection, 2.4 T

Question: What does the source list for `CC(C)CC(=O)[13C](=O)[O-].[Na+]` [sodium ^13C1-α-ketoisocaproate]?
Answer: 13C-leucine signal as share of the 13C-α-ketoisocaproate signal (mouse liver): approximately 1%; 13C-leucine distribution [1, 3]: confined to the tumour area; 13C-α-ketoisocaproate signal distribution [1, 3]: the highest in the large blood vessels; ratio image (13C-leucine to 13C-α-ketoisocaproate) ([1]; confirmed by Omniscan-enhanced proton image): defines the tumour area

Question: For “^13C-α-ketoisocaproate [hyperpolarised ^13C-α-ketoisocaproate]”, which tolerability [2] is on record?
Answer: Its tolerability is “well tolerated”.
